By pKi is commonly meant the negative decadic logarithm of the Ki, by convention in mol/L.

Structures are written as SMILES. pKi: −log10 of the molar value.

This experiment addresses T1, Corticotropin-releasing factor receptor 1 (Homo sapiens, UniProt P34998).
T1 sequence (P34998 whole entry): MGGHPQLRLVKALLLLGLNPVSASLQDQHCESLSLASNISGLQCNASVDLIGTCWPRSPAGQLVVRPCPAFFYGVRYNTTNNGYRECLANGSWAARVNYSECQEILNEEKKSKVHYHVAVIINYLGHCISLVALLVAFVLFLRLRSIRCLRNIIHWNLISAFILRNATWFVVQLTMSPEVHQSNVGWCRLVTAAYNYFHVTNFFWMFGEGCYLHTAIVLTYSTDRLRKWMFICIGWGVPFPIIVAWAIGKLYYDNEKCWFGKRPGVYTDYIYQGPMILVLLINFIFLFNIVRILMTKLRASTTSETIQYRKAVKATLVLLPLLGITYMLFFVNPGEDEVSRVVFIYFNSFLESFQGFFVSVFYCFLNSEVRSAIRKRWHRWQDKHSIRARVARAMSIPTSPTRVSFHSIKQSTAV
Description: Binding affinity to recombinant human Corticotropin releasing factor receptor 1 (hCRF1) expressed in 293EBNA cells. The class given is cell-based.
For the compound `COCC(COC)Oc1nc(C)nc2c1nnn2-c1ccc(C(C)C)cc1Br`, the pKi is 8.15.
Then `CCCC(CC)Nc1nc(C)nc2c1nnn2-c1ccc(C(C)C)cc1Br` (configuration not stated), with 8.55; and `CCCCC(CC)Oc1nc(C)nc2c1ncn2-c1ccc(C(C)C)cc1Br` (configuration not stated), with 8.54; and `Cc1nc(N(CCO)CCO)c2nnn(-c3ccc(C(C)C)cc3Br)c2n1`, with 5.46.
On to `COCCN(CCOC)c1nc(C)nc2c1nnn2-c1ccc(N(C)C)cc1C(F)(F)F`, for which the pKi was 7.63.
Take `COCCN(CCOC)c1nc(C)nc2c1ncn2-c1ccc(C(C)C)cc1Br`: the negative logarithm of the Ki (pKi) was 8.23.
On to `CCCCN(CC)c1nc(C)nc2c1nnn2-c1ccc(C(C)=O)cc1Br`, for which the negative logarithm of the Ki (pKi) was 7.47.
Turning to `CCN(CC)c1nc(C)nc2c1ncn2-c1ccc(C(C)C)cc1Br`, the negative logarithm of the Ki (pKi) is 7.91.
Then `COCCN(CCOC)c1nc(C)nc2c1nnn2-c1ccc(C(C)C)cc1SC`, with 7.82.
Turning to `COCCN(CCOC)c1nc(C)nc2c1nc(C)n2-c1ccc(C(C)C)cc1Br`, the pKi is 8.17.
For `CCC(COC)N(C)c1nc(C)nc2c1nnn2-c1ccc(C(C)C)cc1Br` (configuration not stated), the pKi was 7.95.
Turning to `CCCCN(CC)c1nc(C)nc2c1nnn2-c1ccc(Br)cc1Br`, the pKi was 7.69.
On to `COCCN(CCOC)c1nc(C)nc2c1nnn2-c1ccc(OC(F)(F)F)cc1Br`, for which the pKi is 7.48.
Regarding `CCCCN(CCCC)c1nc(C)nc2c1nnn2-c1ccc(C(C)C)cc1Br`, the pKi was 7.49.
With `CCC(CC)Nc1nc(C)nc2c1nnn2-c1c(C)cc(C)cc1C`, the negative-log Ki (pKi) is 8.24.
For the compound `CCCCN(CC)c1nc(C)nc2c1nnn2-c1c(Cl)cc(OC)cc1OC`, the pKi was 8.36.
For `CCCCN(CC)c1nc(C)nc2c1ncn2-c1c(C)cc(C)cc1C`, the negative-log Ki (pKi) was 7.60.
`COCCN(CCOC)c1nc(C)nc2c1ncn2-c1c(C)cc(C)cc1C`: the pKi was 7.68.
As for `CCCCN(CCCC)c1nc(C)nc2c1ncn2-c1ccc(C(C)C)cc1Br`, the negative logarithm of the Ki (pKi) was 8.21.
To `COCCN(Cc1cccnc1)c1nc(C)nc2c1nnn2-c1ccc(C(C)C)cc1Br` belongs 7.31; to `COCCCNc1nc(C)nc2c1nnn2-c1ccc(C(C)C)cc1Br`, 6.54; to `CCCCN(CC)c1cc(C)nc2c1nnn2-c1ccc(C(C)C)cc1SC`, 8.66.
`CCC(CO)Nc1nc(C)nc2c1nnn2-c1ccc(C(C)C)cc1Br` (configuration not stated): the pKi is 7.60.
As for `CCN(c1nc(C)nc2c1nnn2-c1ccc(C(C)C)cc1Br)C(COC)COC`, the pKi was 6.91.
For the compound `COCCN(CCOC)c1nc(C)nc2c1c(C)c(C)n2-c1c(C)cc(C)cc1C`, the negative logarithm of the Ki (pKi) was 8.15.
Take `COCCCN(CCOC)c1nc(C)nc2c1nnn2-c1ccc(C(C)C)cc1Br`: the negative-log Ki (pKi) is 7.17.
Take `CCC(CC)Oc1nc(C)nc2c1nnn2-c1ccc(C(C)C)cc1Br`: the negative-log Ki (pKi) was 8.72.
As to `CCCC(C)Nc1nc(C)nc2c1nnn2-c1c(C)cc(C)cc1C` (configuration not stated), the pKi is 8.15.
Take `CCC(CO)Nc1nc(C)nc2c1c(C)c(C)n2-c1c(C)cc(C)cc1C` (configuration not stated): the negative-log Ki (pKi) is 7.56.
Take `CCCC(CN(C)C)Nc1nc(C)nc2c1nnn2-c1ccc(C(C)C)cc1Br` (configuration not stated): the negative-log Ki (pKi) is 7.41.
As for `CCCC(CCC)Nc1nc(C)nc2c1ncn2-c1ccc(C(C)C)cc1Br`, the negative logarithm of the Ki (pKi) is 8.44.
To `CCC(Nc1nc(C)nc2c1nnn2-c1ccc(C(C)C)cc1Br)C(=O)OC` (configuration not stated) belongs 7.71.
Then `COCC(Cc1ccccc1)Nc1nc(C)nc2c1nnn2-c1ccc(C(C)C)cc1Br` (configuration not stated), with 7.44.
Then `COCC(Cc1ccccc1)Nc1nc(C)nc2c1nnn2-c1c(C)cc(C)cc1C` (configuration not stated), with 7.56.
As to `CCN(CCOC)c1nc(C)nc2c1nnn2-c1ccc(C(C)C)cc1Br`, the pKi was 7.98.
`COCCN(CCOC)c1cc(C)nc2c1nnn2-c1ccc(C(C)C)cc1Br`: the negative-log Ki (pKi) was 8.33.
As to `COCCN(CCOC)c1nc(C)nc2c1ncn2-c1c(Br)cc(OC)cc1OC`, the negative logarithm of the Ki (pKi) is 7.50.
Then `COCCN(CCOC)c1nc(C)nc2c1nnn2-c1c(C)cc(C)cc1C`, with 7.62.
Then `CCC(CC)Nc1nc(C)nc2c1nnn2-c1ccc(C(C)C)cc1Br`, with 8.28.
For `Cc1nc(N2CCCC2)c2nnn(-c3ccc(C(C)C)cc3Br)c2n1`, the pKi was 6.71.
To `COCCN(CCOC)c1cc(C)nc2c1nc(C)n2-c1ccc(C(C)C)cc1Br` belongs 8.01; to `COCCNc1nc(C)nc2c1nnn2-c1ccc(C(C)C)cc1Br`, 6.62.
Regarding `COCCN(CCOC)c1nc(C)nc2c1nnn2-c1ccc(N(C)C)cc1Br`, the negative-log Ki (pKi) was 7.98.
`CCOCC(COCC)Oc1nc(C)nc2c1nnn2-c1ccc(C(C)C)cc1Br`: the pKi is 7.40.
In the case of `CCCCC(CCCC)Nc1nc(C)nc2c1nnn2-c1ccc(C(C)C)cc1Br`, the negative-log Ki (pKi) was 8.35.
Regarding `COCCN(CCOC)c1cc(C)nc2c1nnn2-c1ccc(C(C)C)cc1S(C)(=O)=O`, the pKi was 6.32.
Then `COCCN(CCOC)c1nc(C)nc2c1nnn2-c1c(Br)cc(OC)cc1OC`, with 7.55; and `CCCCN(CC)c1nc(C)nc2c1nnn2-c1ccc(N(C)C)cc1C(F)(F)F`, with 7.81.
Then `CCCCC(CC)Nc1nc(C)nc2c1nnn2-c1ccc(C(C)C)cc1Br` (configuration not stated), with 8.51; and `COCCN(CCOC)c1nc(C)nc2c1nnn2-c1ccc(Br)cc1Br`, with 8.13; and `CCCCC(CC)Nc1nc(C)nc2c1nnn2-c1c(C)cc(C)cc1C` (configuration not stated), with 8.12.
To `COCC(COC)Nc1nc(C)nc2c1nnn2-c1ccc(C(C)C)cc1Br` belongs 7.99.
With `CCCCc1nc2c(N(CC)CCCC)nc(C)nc2n1-c1c(Cl)cc(OC)cc1OC`, the negative logarithm of the Ki (pKi) is 7.66.
Then `CCCCN(CC)c1nc(C)nc2c1nnn2-c1ccc(S(C)(=O)=O)cc1Br`, with 7.00; and `COCCN(CCOC)c1nc(C)nc2c1nnn2-c1c(C)cc(C)nc1C`, with 6.38.
Then `CCCCN(CC)c1nc(C)nc2c1nnn2-c1c(C)cc(C)cc1C`, with 7.56.
To `CCCCC(CC)Nc1nc(C)nc2c1ncn2-c1ccc(C(C)C)cc1Br` (configuration not stated) belongs 8.29; to `CCCCN(CC)c1nc(C)nc2c1ncn2-c1ccc(C(C)C)cc1Br`, 8.37; to `COCCN(CCOC)c1cc(C)nc2c1nnn2-c1ccc(C(C)C)cc1SC`, 8.33.
In the case of `CCN(CCOC)c1nc(C)nc2c1ncn2-c1ccc(C(C)C)cc1Br`, the negative logarithm of the Ki (pKi) was 8.04.
As for `CCCCN(CC)c1ncnc2c1nnn2-c1ccc(C(C)C)cc1Br`, the negative logarithm of the Ki (pKi) is 6.54.
With `CCN(CCOC)c1nc(C)nc2c1nnn2-c1c(C)cc(C)cc1C`, the negative logarithm of the Ki (pKi) was 7.68.
On to `COCCN(CCOC)c1nc(C)nc2c1nnn2-c1c(Cl)cc(OC)cc1OC`, for which the pKi is 7.68.
Regarding `CCCCN(CC)c1nc(C)nc2c1nc(-c1ccccc1)n2-c1c(Cl)cc(OC)cc1OC`, the pKi was 6.88.
Then `COCC(C)(C)Nc1nc(C)nc2c1nnn2-c1ccc(C(C)C)cc1Br`, with 6.71; and `CCCC(Nc1nc(C)nc2c1nnn2-c1ccc(C(C)C)cc1Br)C(=O)N(C)C` (configuration not stated), with 6.63; and `Cc1cc(C)c(-n2c(C)c(C)c3c(N4CCOCC4)nc(C)nc32)c(C)c1`, with 6.70.
Take `CCCCNc1nc(C)nc2c1c(C)c(C)n2-c1c(C)cc(C)cc1C`: the negative logarithm of the Ki (pKi) was 7.54.
Consider `COCCNc1nc(C)nc2c1ncn2-c1ccc(C(C)C)cc1Br`, for which the pKi is 6.68.
Take `C=CCN(CCOC)c1nc(C)nc2c1nnn2-c1ccc(C(C)C)cc1Br`: the negative logarithm of the Ki (pKi) was 8.37.
As for `Cc1nc(N2CCCCC2)c2nnn(-c3ccc(C(C)C)cc3Br)c2n1`, the pKi is 7.34.
Turning to `COCCN(CCOC)c1nc(C)nc2c1nnn2-c1c(Br)cc(OC)cc1N(C)C`, the negative logarithm of the Ki (pKi) is 7.32.
Then `CCN(CC)c1nc(C)nc2c1nnn2-c1ccc(C(C)C)cc1Br`, with 7.60; and `CCCCNc1nc(C)nc2c1nnn2-c1ccc(C(C)C)cc1Br`, with 7.16.
Consider `CCCC(CCC)Nc1nc(C)nc2c1nnn2-c1ccc(Br)cc1Br`, for which the pKi was 9.10.
On to `CCCCN(CC)c1nc(C)nc2c1ncn2-c1c(Br)cc(OC)cc1OC`, for which the negative-log Ki (pKi) is 8.46.
`CCCCN(CC)c1nc(C)nc2c1nc(C(F)(F)F)n2-c1ccc(C(C)C)cc1Br`: the pKi was 8.85.
Turning to `CCCCN(CC)c1nc(C)nc2c1nnn2-c1ccc(SC)cc1Br`, the pKi was 7.97.
`COCCN(CCOC)c1nc(C)nc2c1nnn2-c1ccc(C(C)C)cc1`: the negative-log Ki (pKi) was 5.41.
To `CCCCN(CC)c1cc(C)nc2c1nc(C)n2-c1ccc(C(C)C)cc1Br` belongs 8.41; to `CCCCC(CC)Oc1nc(C)nc2c1nnn2-c1ccc(C(C)C)cc1Br` (configuration not stated), 8.82; to `COCCN(CC1CC1)c1nc(C)nc2c1nnn2-c1ccc(C(C)C)cc1Br`, 8.34.
As to `COCCN(CCOC)c1ncnc2c1nnn2-c1ccc(C(C)C)cc1Br`, the negative logarithm of the Ki (pKi) is 6.69.
As for `COCC(COC)N(C)c1nc(C)nc2c1nnn2-c1ccc(C(C)C)cc1Br`, the pKi was 7.67.
`CCCC(CCC)Nc1nc(C)nc2c1nnn2-c1c(C)cc(C)cc1C`: the pKi is 8.40.
On to `CCCCN(CC)c1nc(C)nc2c1ncn2-c1c(Cl)cc(OC)cc1OC`, for which the pKi is 8.28.
Take `CCCC(CC)Nc1nc(C)nc2c1ncn2-c1ccc(C(C)C)cc1Br` (configuration not stated): the negative logarithm of the Ki (pKi) is 8.36.
On to `CCCCN(CC)c1nc(C)nc2c1nc(C)n2-c1c(Cl)cc(OC)cc1OC`, for which the negative-log Ki (pKi) was 8.46.
Then `Cc1nc(NC2CCCC2)c2nnn(-c3ccc(C(C)C)cc3Br)c2n1`, with 6.92; and `COCCN(CCO)c1nc(C)nc2c1nnn2-c1ccc(C(C)C)cc1Br`, with 7.19; and `CCC(CC)Oc1nc(C)nc2c1ncn2-c1ccc(C(C)C)cc1Br`, with 8.46.
Consider `CCCCN(CC)c1nc(C)nc2c1nnn2-c1c(Br)cc(OC)cc1OC`, for which the pKi was 8.52.

These data come from ChEMBL document CHEMBL1132598, “Synthesis, corticotropin-releasing factor receptor binding affinity, and pharmacokinetic properties of triazolo-, imidazo-, and pyrrolopyrimidines and -pyridines” (J Med Chem, 1999).
